Assay results: US11939348B2, “Compositions comprising a phosphorus derivative of nicotinamide riboside and methods for modulation of nicotinamide adenine dinucleotide” (Metro International Biotech, LLC, priority 2019, dated 2024)

Test system: AML12 cells
Experiment: NAD(H) normalized to total protein in treated AML12 cells compared to untreated cells
Format: cell-based
Conditions: compound at 2 mM, 1 mM and 500 micromolar, untreated cells normalized to 1.0, FIG. 1
Source text: Compound A is Formula I, n=2. Compound B is Formula I, n=1.

Row | SMILES | NAD(H) normalized to total protein in treated AML12 cells compared to untreated cells
1 | NC(=O)c1ccc[n+]([C@@H]2O[C@H](COP(=O)(O)OC[C@H]3O[C@@H]([n+]4cccc(C(N)=O)c4)[C@H](O)[C@@H]3O)[C@@H](O)[C@H]2O)c1 [Compound B, bis(((2R,3S,4R,5R)-5-(3-carbamoylpyridin-1-ium-1-yl)-3,4-dihydroxytetrahydrofuran-2-yl)methyl) phosphate acetate] | possess NAD(H) boosting activity
2 | NC(=O)c1ccc[n+]([C@@H]2O[C@H](COP(=O)([O-])OP(=O)([O-])OCC3O[C@@H]([n+]4cccc(C(N)=O)c4)[C@H](O)[C@@H]3O)[C@@H](O)[C@H]2O)c1 (some centres unmarked) [Compound A] | possess NAD(H) boosting activity
